Earlier results in patent publication US20240207217A1, “IMPROVED TREATMENT METHODS FOR CABAZITAXEL” (ORBICULAR PHARMACEUTICAL TECHNOLOGIES PRIVATE LIMITED, priority 2020, published 2024).
Entries after “also recorded” stand apart in the source; their conditions may differ.

Columns and labels:
[1] = IV administration; high clearance and small Vd
[2] = clinical trials in patients with cancer
[3] = test system: complement; details: enzyme-linked immunosorbent assays

Compound | Half-life (t ½) [1] | Incidence of infusion-site adverse events (ISAEs) [2] | Solubility in water | Complement activation in vitro (in words) [3]
sulfobutyl-ether-beta-cyclodextrin [SBCD] | quite short |  |  | 
CC(=O)O[C@@]12CO[C@@H]1C[C@H](O)[C@@]1(C)C(=O)[C@H](O)C3=C(C)[C@@H](OC(=O)[C@H](O)[C@@H](NC(=O)OC(C)(C)C)c4ccccc4)C[C@@](O)([C@@H](OC(=O)c4ccccc4)[C@H]21)C3(C)C [docetaxel] |  | 3-4% | poorly soluble | cause complement activation
CC(=O)O[C@H]1C(=O)[C@@]2(C)[C@H]([C@H](OC(=O)c3ccccc3)[C@]3(O)C[C@H](OC(=O)[C@H](O)[C@@H](NC(=O)c4ccccc4)c4ccccc4)C(C)=C1C3(C)C)[C@]1(OC(C)=O)CO[C@@H]1C[C@@H]2O [paclitaxel] |  |  | poorly soluble | 
CO[C@H]1C(=O)[C@]2(C)[C@@H](OC)C[C@H]3OC[C@@]3(OC(C)=O)[C@H]2[C@H](OC(=O)c2ccccc2)[C@]2(O)C[C@H](OC(=O)[C@H](O)[C@@H](NC(=O)OC(C)(C)C)c3ccccc3)C(C)=C1C2(C)C [cabazitaxel] |  |  | poorly soluble | 
Poly-oxyethylene-sorbitan monooleate [polysorbate 80] |  |  |  | cause complement activation; also recorded: could activate the complement system
